# Ends that are not written are not given here. * marks the point of attachment. Mu = morpholinocarbonyl, O=C(N1CCOCC1)*
# System: human MDA-MB231 breast cancer xenografts
# Assay: Antitumor effect in breast cancer xenografts
# Assay type: in vivo, nude mice
# Conditions: FIG. 6 legend, values not given
substance,measurement,value
FAP activated prodrug: FAP selective peptide Mu-SGEAGPA (Mu = morpholinocarbonyl) coupled to 12 ADT (12-aminododecanoyl thapsigargin) (not fully specified (C-terminus); printed as Mu-SGEAGPA; also: coupled to 12ADT (12-aminododecanoyl thapsigargin)),antitumor effect,antitumor effect
